Test results published in ChEMBL document CHEMBL5046321, “Discovery by Virtual Screening of an Inhibitor of CDK5-Mediated PPARγ Phosphorylation” (ACS Med Chem Lett, 2022).
Converted amounts (≈) assume the structure as drawn.

Assays:
[1] = Lipophilicity, logD of compound at pH 7.4 by shake flask assay based LC-MS/MS analysis; format: physicochemical; settings: buffer
[2] = Aqueous solubility of the compound by LC-MS/MS analysis; format: physicochemical; settings: buffer
[3] = Metabolic stability in human Hepatocyte assessed as intrinsic clearance in 1 million cells/mL measured upto 60 mins by LC-MS/MS analysis; format: ADME, cell-based; settings: hepatocytes, read-out: CLH
[4] = Metabolic stability in rat Hepatocyte assessed as intrinsic clearance in 1 million cells/mL measured upto 120 mins by LC-MS/MS analysis; format: ADME, cell-based; settings: hepatocytes, read-out: CLH
[5] = Metabolic stability in mouse Hepatocyte assessed as intrinsic clearance in 1 million cells/mL by LC-MS/MS analysis; format: ADME, cell-based; settings: hepatocytes, read-out: CLH
[6] = Apparent permeability in human Caco-2 cells at 10 uM incubated for 45 to 120 mins by LC-MS/MS analysis; format: ADME, cell-based; settings: time 45-120 min, read-out: permeability
[7] = Oral bioavailability in lean C57BL/6J mouse at 100 umol/kg dosed daily for 7 days by HPLC-MS analysis; format: ADME, organism-based; settings: in vivo, at 100 µmol/kg, time 7 day
[8] = Cmax in lean C57BL/6J mouse at 100 umol/kg, po dosed daily for 7 days by HPLC-MS analysis; format: ADME, organism-based; design: route oral, dose 100 µmol/kg, time 7 day; settings: in vivo
[9] = Half life in lean C57BL/6J mouse at 100 umol/kg, po dosed daily for 7 days by HPLC-MS analysis; format: ADME, organism-based; settings: in vivo, dose 100 µmol/kg, time 7 day
[10] = Metabolic stability in human liver microsomes assessed as intrinsic clearance measured upto 30 mins by LC-MS/MS analysis; format: ADME, Microsome; settings: read-out: CLH

- logD [1]: 2.3
- solubility [2]: 324 µM (≈ 143 µg/mL)
- hepatocyte CLint [3]: 15.2 µL/min/1e6 cells
- hepatocyte CLint [4]: 8.8 µL/min/1e6 cells
- hepatocyte CLint [5]: 10 µL/min/1e6 cells
- Papp at 10 µM [6]: 13 ×10⁻⁶ cm/s
- bioavailability [7]: 109%
- Cmax [8]: 167 µM
- half-life [9]: 5 h
- microsomal CLint [10]: < 4 µL/min/mg
Structure (SMILES): O=C(O)c1nn(Cc2ccc(Cl)c(Cl)c2)c(=O)c2cc(Oc3ccccc3)ccc12
